We go through two molecules from patent US20250177302A1, “LIPOSOME COMPOSITION AND LIPOSOME-CONTAINING PHARMACEUTICAL COMPOSITION” (Eisai R&D Management Co., Ltd., priority 2022, published 2025).

Data set [1] can be described thus: Measurement of blood drug concentration (2), change over time. Conditions: mice, i.v. 2 mg/kg, 15 minutes, 4 hours and 24 hours after administration. Type of data set: in vivo. How it is done:
The blood was centrifuged for 10 minutes at about 1200 g, and the plasma was collected. The drug concentration of the harvested plasma was assayed using LC-MS/MS.
The liposome compositions of Examples 2, 5 and 8, and an aqueous solution of methanesulfonic acid salt of compound (I), were administered to mice by the same method as “4. Measurement of blood drug concentration (1)”, collecting blood at 15 minutes, 4 hours and 24 hours after administration, and measuring the change in blood drug concentration.

Data set [2] relates to HUVEC proliferation in the presence of VEGF. As to the kind of experiment: HUVEC 2D growth assay, cell proliferation by VEGF stimulation. Type of data set: cell-based. The note with it: Homo sapiens, 72 h, VEGF 20 ng/mL, 3 days, CellTiter-Glo. As for the experimental part: (§1) 1. Measurement of Inhibiting Effect on Cell Proliferation by Vascular Endothelial Growth Factor (VEGF) or Basic Fibroblast Growth Factor (bFGF) Stimulation
(§2) The inhibiting effect of compound (I) on cell proliferation by VEGF or bFGF stimulation was evaluated by the following procedure based on HUVEC 2D growth assay.
(§3) Normal human umbilical vein endothelial cells (HUVEC) were isolated by a previously reported method (Shinseikagaku Jikken Koza, “Cell Culture Technology”, p.197-202). The cells were cultured overnight in a collagen I-coated flask (IWAKI 4143-010), with EGM-2 culture medium (Lonza Inc CC-3162) containing 10% Fetal Bovine Serum (FBS: Sigma 172012) in a 5% CO2 incubator (37° C.). On the following day, the culture supernatant was discarded and the medium was exchanged with EBM-2 culture medium containing 2% FBS, prior to further culturing overnight. On the following day, 2% FBS, and a HUVEC cell suspension prepared to 1.5×10^4 cells/mL with Human Endothelial Serum Free Medium (SFM: Gibco 11111-044) containing penicillin/streptomycin (FujiFilm-Wako Pure Chemical Industries) (hereunder referred to as “2% FBS-SFM”) were each added at 100 μL to each well of a 96-well plate (Corning 3904), and culturing was carried out overnight in a 5% CO2 incubator (37° C.). […]
On the technique in general: Cellular ATP, detected with luciferase, serves as a proxy for viable cell number.

For data set [3], the system named is HUVEC proliferation in the presence of bFGF. As to the kind of experiment: HUVEC 2D growth assay, cell proliferation by bFGF stimulation. Type of data set: cell-based. The note with it: Homo sapiens, 72 h, bFGF 20 ng/mL, 3 days, CellTiter-Glo. How it is done:
as §1, §2, §3

With `CCNC(=O)Nc1ccc(Oc2ccnc3cc(OC)c(C(N)=O)cc23)cc1Cl.CS(=O)(=O)O` [4-(3-Chloro-4-(ethylaminocarbonyl)aminophenoxy)-7-methoxy-6-quinolinecarboxamide methanesulfonate], the “Change in blood drug concentration (FIG. 1), in words” value in data set [1] is reported as “significantly lower after 24 hours”.
The IC50 is the concentration that gives 50% inhibition. On to `CCNC(=O)Nc1ccc(Oc2ccnc3cc(OC)c(C(N)=O)cc23)cc1Cl` [compound (I), 4-(3-chloro-4-(ethylaminocarbonyl)aminophenoxy)-7-methoxy-6-quinolinecarboxamide], for which the IC50 in data set [2] came to 1.75 nM; in data set [3] it was 343 nM.
